Measured values published in ChEMBL document CHEMBL3045401, “(Naphthalen-1-yloxy)-acetic acid benzylidene/(1-phenyl-ethylidene)-hydrazide derivatives: synthesis, antimicrobial evaluation, and QSAR studies” (Med Chem Res, 2012).
Converted amounts (≈) assume the structure as drawn.

Columns and labels:
Staphylococcus aureus = assay: Antimicrobial activity against Staphylococcus aureus after 24 hr by serial dilution method; format: functional
[1] = Cytotoxicity against HEL; format: cell-based; details: human, HEL cells
[2] = Cytotoxicity against HEL assessed as minimum concentration required to cause morphological changes; format: cell-based; details: human, HEL cells
Human alphaherpesvirus 3 [3] = assay: Antiviral activity against thymidine kinase-deficient Human herpesvirus 3 infected in HEL cells assessed as inhibition of viral plaque formation; format: functional, organism-based; details: Human alphaherpesvirus 3, HEL
Human alphaherpesvirus 3 [4] = assay: Antiviral activity against thymidine kinase-positive Human herpesvirus 3 infected in HEL cells assessed as inhibition of viral plaque formation; format: functional, organism-based; details: Human alphaherpesvirus 3, HEL
Human betaherpesvirus 5 [5] = assay: Antiviral activity against Human herpesvirus 5 strain AD169 infected human HEL cells assessed as reduction in the virus plaque formation; format: functional, organism-based; details: Human betaherpesvirus 5, AD169, HEL
Human betaherpesvirus 5 [6] = assay: Antiviral activity against Human herpesvirus 5 Davis infected human HEL cells assessed as reduction in the virus plaque formation; format: functional, organism-based; details: Human betaherpesvirus 5, Davis
Escherichia coli = assay: Antimicrobial activity against Escherichia coli after 24 hr by serial dilution method; format: functional
[7] = Cytotoxicity against Homo sapiens (human) MT4 cells after 4 days by MTT assay; format: cell-based
[8] = system: Human immunodeficiency virus 2; assay: Antiviral activity against Human immunodeficiency virus type 2 (ISOLATE ROD) infected human MT4 cells assessed as inhibition of virus-induced cytopathic effect after 4 days by MTT assay; format: functional, organism-based; details: Human immunodeficiency virus 2, ISOLATE ROD, MT4, 96 h
Bacillus subtilis = assay: Antimicrobial activity against Bacillus subtilis after 24 hr by serial dilution method; format: functional
[9] = Octanol-water partition coefficient, log P of the compound; format: physicochemical
Candida albicans = assay: Antimicrobial activity against Candida albicans after 2 days by serial dilution method; format: functional
[10] = system: Human immunodeficiency virus 1; assay: Antiviral activity against Human immunodeficiency virus 1 IIIB infected human MT4 cells assessed as inhibition of virus-induced cytopathic effect after 4 days by MTT assay; format: functional, organism-based; details: MT4, 96 h
Aspergillus niger = assay: Antimicrobial activity against Aspergillus niger after 7 days by serial dilution method; format: functional

Row | Structure (SMILES) | -logMIC (Staphylococcus aureus) | CC50 [1] | MCC [2] | EC50 (Human alphaherpesvirus 3 [3]) | EC50 (Human alphaherpesvirus 3 [4]) | EC50 (Human betaherpesvirus 5 [5]) | EC50 (Human betaherpesvirus 5 [6]) | -logMIC (Escherichia coli) | CC50 at 96 h [7] | EC50 [8] | -logMIC (Bacillus subtilis) | logP [9] | -logMIC (Candida albicans) | EC50 [10] | -logMIC (Aspergillus niger)
1 | O=C(COc1cccc2ccccc12)N/N=C/C=C/c1ccccc1 | 1.12 | 100 µg/mL (≈ 303 µM) | 100 µg/mL | > 20 µg/mL | > 20 µg/mL | > 20 µg/mL | > 20 µg/mL | 1.12 | 82.7 µg/mL (≈ 250 µM) | > 62.7 µg/mL | 1.12 | 4.43 | 1.72 | > 62.7 µg/mL | 0.82
2 | O=C(COc1cccc2ccccc12)N/N=C/c1ccccc1O | 1.71 | 3.57 µg/mL (≈ 11.1 µM) | 20 µg/mL | > 0.8 µg/mL | > 0.8 µg/mL | > 4 µg/mL | > 4 µg/mL | 1.41 | 5.19 µg/mL (≈ 16.2 µM) | > 5.19 µg/mL | 1.11 | 3.73 | 1.41 | > 5.19 µg/mL | 1.11
3 | O=C(COc1cccc2ccccc12)N/N=C/c1cccc(O)c1 | 1.71 | 62.7 µg/mL (≈ 196 µM) | 100 µg/mL | 16.2 µg/mL (≈ 50.6 µM) | 9.2 µg/mL (≈ 28.7 µM) | > 20 µg/mL | > 20 µg/mL | 1.41 | 32.6 µg/mL (≈ 102 µM) | > 32.6 µg/mL | 1.11 | 3.73 | 1.41 | > 32.6 µg/mL | 1.41
4 | O=C(COc1cccc2ccccc12)N/N=C/c1ccc(O)cc1 | 1.71 | 60.6 µg/mL (≈ 189 µM) | 20 µg/mL | 10.5 µg/mL (≈ 32.8 µM) | 9.6 µg/mL (≈ 30 µM) | > 4 µg/mL | > 4 µg/mL | 1.41 | 26.5 µg/mL (≈ 82.7 µM) | > 26.5 µg/mL | 1.11 | 3.73 | 1.71 | > 26.5 µg/mL | 1.11
5 | COc1ccc(/C=N/NC(=O)COc2cccc3ccccc23)cc1 | 0.82 | 100 µg/mL (≈ 299 µM) | 20 µg/mL | > 4 µg/mL | > 4 µg/mL | > 4 µg/mL | > 4 µg/mL | 0.82 | 76.9 µg/mL (≈ 230 µM) | > 76.9 µg/mL | 0.82 | 3.77 | 0.82 | > 76.9 µg/mL | 0.82
6 | COc1ccc(OC)c(/C=N/NC(=O)COc2cccc3ccccc23)c1 | 1.16 | 56.9 µg/mL (≈ 156 µM) | ≥ 20 µg/mL | > 20 µg/mL | > 4 µg/mL | > 4 µg/mL | > 20 µg/mL | 1.46 | 19.2 µg/mL (≈ 52.8 µM) | > 19.2 µg/mL | 1.16 | 3.51 | 1.46 | > 19.2 µg/mL | 1.46
7 | COc1ccc(/C=N/NC(=O)COc2cccc3ccccc23)cc1OC | 1.46 | 52.6 µg/mL (≈ 144 µM) | ≥ 20 µg/mL | > 20 µg/mL | > 4 µg/mL | > 4 µg/mL | > 20 µg/mL | 1.46 | 14.7 µg/mL (≈ 40.2 µM) | > 14.6 µg/mL | 1.16 | 3.51 | 1.46 | > 14.6 µg/mL | 1.46
8 | COc1cc(/C=N/NC(=O)COc2cccc3ccccc23)cc(OC)c1OC | 1.8 | 47.9 µg/mL (≈ 121 µM) | ≥ 20 µg/mL | 17.4 µg/mL (≈ 44.1 µM) | 12.5 µg/mL (≈ 31.7 µM) | > 4 µg/mL | > 20 µg/mL | 1.5 | 13.4 µg/mL (≈ 34 µM) | > 13.4 µg/mL | 1.5 | 3.26 | 1.5 | > 13.4 µg/mL | 1.5
9 | COc1ccc(/C=N/NC(=O)COc2cccc3ccccc23)cc1O | 1.15 | 27.7 µg/mL (≈ 79.1 µM) | 100 µg/mL | 20 µg/mL (≈ 57.1 µM) | 13.8 µg/mL (≈ 39.4 µM) | > 20 µg/mL | > 20 µg/mL | 1.45 | 7.05 µg/mL (≈ 20.1 µM) | > 7.05 µg/mL | 1.45 | 3.48 | 1.15 | > 7.05 µg/mL | 1.15
10 | CCOc1ccc(/C=N/NC(=O)COc2cccc3ccccc23)cc1O | 1.16 | 18.1 µg/mL (≈ 49.7 µM) | 100 µg/mL | > 4 µg/mL | > 4 µg/mL | > 20 µg/mL | > 20 µg/mL | 1.46 | 6.23 µg/mL (≈ 17.1 µM) | > 6.23 µg/mL | 1.46 | 3.82 | 1.46 | > 6.23 µg/mL | 1.46
11 | COc1cc(/C=N/NC(=O)COc2cccc3ccccc23)cc(OC)c1O | 1.18 | 52.8 µg/mL (≈ 139 µM) | 100 µg/mL | > 20 µg/mL | 16.9 µg/mL (≈ 44.4 µM) | > 20 µg/mL | > 20 µg/mL | 1.48 | 16.3 µg/mL (≈ 42.8 µM) | > 16.3 µg/mL | 1.48 | 3.23 | 1.78 | > 16.3 µg/mL | 1.48
12 | CSc1ccc(/C=N/NC(=O)COc2cccc3ccccc23)cc1 | 0.85 | > 100 µg/mL | ≥ 100 µg/mL | > 20 µg/mL | > 20 µg/mL | > 20 µg/mL | > 20 µg/mL | 0.85 | 68.3 µg/mL (≈ 195 µM) | > 68.3 µg/mL | 0.85 | 4.11 | 1.45 | > 68.3 µg/mL | 0.54
13 | Cc1ccc(/C=N/NC(=O)COc2cccc3ccccc23)cc1 | 1.12 | 80.1 µg/mL (≈ 252 µM) | 20 µg/mL | > 20 µg/mL | > 20 µg/mL | > 4 µg/mL | > 4 µg/mL | 0.52 | 83.9 µg/mL (≈ 263 µM) | > 83.9 µg/mL | 0.52 | 4.49 | 0.52 | > 83.9 µg/mL | 0.82
14 | O=C(COc1cccc2ccccc12)N/N=C/c1ccccc1Br | 1.19 | 100 µg/mL (≈ 261 µM) | ≥ 20 µg/mL | > 4 µg/mL | > 4 µg/mL | > 4 µg/mL | > 20 µg/mL | 0.88 | 11.4 µg/mL (≈ 29.8 µM) | > 11.4 µg/mL | 0.88 | 4.81 | 0.88 | > 11.4 µg/mL | 0.88
15 | O=C(COc1cccc2ccccc12)N/N=C/c1cccc(Br)c1 | 1.79 | 48.6 µg/mL (≈ 127 µM) | 100 µg/mL | > 20 µg/mL | > 20 µg/mL | > 20 µg/mL | > 20 µg/mL | 0.58 | 87.4 µg/mL (≈ 228 µM) | > 87.4 µg/mL | 0.58 | 4.81 | 0.58 | > 87.4 µg/mL | 0.58
16 | O=C(COc1cccc2ccccc12)N/N=C/c1ccc(Br)cc1 | 0.58 | 100 µg/mL (≈ 261 µM) | > 100 µg/mL | > 100 µg/mL | > 100 µg/mL | > 100 µg/mL | > 100 µg/mL | 0.58 | 106 µg/mL (≈ 278 µM) | > 106 µg/mL | 0.58 | 4.81 | 0.58 | > 106 µg/mL | 0.58
17 | O=C(COc1cccc2ccccc12)N/N=C/c1ccc(F)cc1 | 1.41 | 71.6 µg/mL (≈ 222 µM) | 100 µg/mL | > 20 µg/mL | > 20 µg/mL | > 20 µg/mL | > 20 µg/mL | 1.41 | 65 µg/mL (≈ 202 µM) | > 65 µg/mL | 1.11 | 4.16 | 0.81 | > 65 µg/mL | 0.81
18 | O=C(COc1cccc2ccccc12)N/N=C/c1ccccc1[N+](=O)[O-] | 1.45 | 100 µg/mL (≈ 286 µM) | 20 µg/mL | > 4 µg/mL | > 4 µg/mL | > 4 µg/mL | > 4 µg/mL | 1.45 | 12.2 µg/mL (≈ 34.9 µM) | > 12.2 µg/mL | 1.14 | 3.97 | 1.45 | > 12.2 µg/mL | 1.45
19 | O=C(COc1cccc2ccccc12)N/N=C/c1cccc([N+](=O)[O-])c1 | 1.14 | 61.2 µg/mL (≈ 175 µM) | ≥ 20 µg/mL | > 4 µg/mL | > 4 µg/mL | > 4 µg/mL | > 20 µg/mL | 1.45 | 12.1 µg/mL (≈ 34.6 µM) | > 12.1 µg/mL | 1.14 | 3.97 | 1.45 | > 12.1 µg/mL | 0.84
20 | O=C(COc1cccc2ccccc12)N/N=C/c1ccc([N+](=O)[O-])cc1 | 0.84 | 14.2 µg/mL (≈ 40.6 µM) | 20 µg/mL | > 4 µg/mL | > 4 µg/mL | > 4 µg/mL | > 4 µg/mL | 0.84 | 87.8 µg/mL (≈ 251 µM) | > 87.8 µg/mL | 1.14 | 3.97 | 1.45 | > 87.8 µg/mL | 0.54
